Assay results taken from patent US8574925B2, “Fluorescence analysis method using fluorescent-activating antibodies” (Hamamatsu Photonics K.K., priority 2002, dated 2013).
Blank lines part the entries; values can stand above or below the molecule they belong to.

Legend:
Type in all cases: binding, guinea pig
anti-MG-Ins IgG = assay: Fluorescence spectrum of auramine O bound to the anti-MG-Ins IgG; settings: IgG 1 μM, AO 1 μM, PBS pH 7.2, 25° C., excitation 400 nm; FIG. 14
Method: The fluorescence spectrum of AO when AO is bound to the anti-MG-Ins IgG by an antigen-antibody reaction was measured as follows. The anti-MG-Ins IgG and AO were mixed so that the respective concentrations will be 1 μM and 1 μM (using phosphate buffered saline (pH 7.2, PBS) as the solvent). An antigen-antibody reaction was made to proceed by stirring for five minutes at 25° C. Then using the fluorescence spectrophotometer, the fluorescence spectrum emitted from the above-described mixed solution was measured under the conditions of an excitation wavelength of 400 nm, fluorescence wavelength of 450 to 650 nm, and bandpass width being set to 5 nm at both the excitation and fluorescence sides.

anti-MG-Ins Fab [1] = assay: Fluorescence spectrum of malachite green bound to the anti-MG-Ins Fab; settings: Fab 0.955 μM, MG 0.907 μM, PBS pH 7.2, 25° C., excitation 620 nm; FIG. 11
Method: The fluorescence spectrum of MG when MG is bound to the anti-MG-Ins Fab by an antigen-antibody reaction was measured as follows. The anti-MG-Ins Fab and MG were mixed so that the respective concentrations will be 0.955 μM and 0.907 μM (using phosphate buffered saline (pH 7.2, PBS) as the solvent). Then, an antigen-antibody reaction was made to proceed by stirring for five minutes at 25° C. Then using the fluorescence spectrophotometer, the fluorescence spectrum emitted from the above-described mixed solution was measured under the conditions of an excitation wavelength of 620 nm, fluorescence wavelength of 630 to 750 nm, and bandpass width being set to 5 nm at both the excitation and fluorescence sides.
Fluorescence spectra were also measured in the same manner as the above for various MG concentrations in the range of 0 to 0.9 μM with the anti-MG-Ins Fab concentration being set at 1 μM.

anti-MG-Ins Fab [2] = assay: Calibration curve: insulin concentration vs AO fluorescence intensity with anti-MG-Ins Fab and auramine O; settings: 2 μM anti-MG-Ins Fab, 0.4 μM AO, excitation 400 nm, fluorescence 520 nm; FIG. 15
Method: A calibration curve was prepared for insulin concentrations in the range of 0 to 7.7 μM in the same manner as described above in [1-10-1] other than the changes of setting the anti-MG-Ins Fab concentration to 2 μM, using 0.4 μM of auramine O in place of 0.4 μM of malachite green, setting the excitation wavelength to 400 nm, and setting the fluorescence wavelength to 520 nm.

anti-MG-Ins Fab [3] = assay: Calibration curve: insulin concentration vs MG fluorescence intensity with anti-MG-Ins Fab and malachite green; settings: 1 μM anti-MG-Ins Fab, 0.4 μM MG, excitation 620 nm, fluorescence 650 nm; FIG. 13
Method: A calibration curve, indicating the relationship between the insulin concentration and fluorescence intensity for a fixed amount (1 μM) of the anti-MG-Ins Fab and a fixed amount (0.4 μM) of MG, was prepared as follows. Since the insulin used forms aggregate of a few molecules because of containing zinc, the insulin was dissolved in advance in PB containing SDS at a final concentration of 0.1% to dissociate the aggregate. The insulin solution thus obtained was thereafter run through a gel permeation column (Fast Desaliting Column HR 10/10, made by Pharnacia), equilibrated using PBS. The insulin solution from which SDS was thus removed was used in the following quantification. • (1) The fluorescence spectrophotometer was set to an excitation wavelength of 620 nm and a fluorescence wavelength of 650 nm and the temperature of the cell holder was maintained at a fixed temperature (25° C.). • (2) 2 ml (A=2 ml) of an antibody-dye solution, containing 1 μM (Y=1 μM) of the anti-MG-Ins Fab and 0.4 μM (Z=0.4 μM) of MG, were prepared (with phosphate buffered saline (pH 7.2, PBS) as the solvent) (S101). • (3) The antibody-dye solution thus obtained was placed in a standard fluorescence measurement cell. This cell was set in the fluorescence spectrophotometer. The solution in the cell was stirred for 30 seconds with a micro stirring bar. […]

anti-MG-Ins Fab [4] = assay: Verification test concerning the reversibility of the antigen-antibody reactions (AO fluorescence)
Method: The following experiment was carried out in order to confirm that, when the free insulin concentration in the same sample is varied by repeating the addition of insulin and the addition of anti-porcine insulin IgG (referred to hereinafter as “anti-insulin IgG”) in a solution containing the anti-MG-Ins Fab and auramine O, the measurement values of this invention vary following the variation of the free insulin concentration, that is, the antigen-antibody reactions concerning this invention are reversible and enable analysis in real time. The measurement of fluorescence intensity was carried out under the same measurement conditions as described above in [2-2-1].
First, 2 ml of a PBS solution, containing 2 μM of the anti-MG-Ins Fab and 0.4 μM of auramine O, were prepared. The AO fluorescence intensity was measured upon placing the solution in a cell. The florescence intensity at this time was set to a relative value of 1.
Insulin was then added to the solution in the cell so that the insulin concentration will be 1.26 μM.
A fixed amount (0.135 μM) of the anti-insulin IgG was then added to this solution. […] The AO fluorescence intensity returned to the original value since the anti-insulin IgG and insulin became bonded and free insulin no longer existed in the solution.
When insulin was then added again to this solution so that the insulin concentration will be 2.39 μM.

fluorescence upon binding with the anti-MG-Ins IgG (anti-MG-Ins IgG): became fluorescent
Molecule: CN(C)c1ccc(C(=N)c2ccc(N(C)C)cc2)cc1 [auramine O]

Molecule: CN(C)c1ccc(C(=C2C=CC(=[N+](C)C)C=C2)c2ccccc2)cc1 [malachite green]
fluorescence upon binding with the anti-MG-Ins Fab (anti-MG-Ins Fab [1]): became fluorescent

Molecule: insulin
change of auramine O fluorescence intensity with increase of insulin concentration (anti-MG-Ins Fab [2]): inhibition of fluorescence occurs
change of malachite green fluorescence intensity with increase of insulin concentration (anti-MG-Ins Fab [3]): enhancement of fluorescence occurs
relative value of the AO fluorescence intensity (anti-MG-Ins Fab [4]; insulin added again to 2.39 μM): decreased again
relative value of the AO fluorescence intensity (anti-MG-Ins Fab [4]; insulin added again to 3.37 μM): decreased
relative value of the AO fluorescence intensity (anti-MG-Ins Fab [4]; insulin added to 1.26 μM, 2 μM anti-MG-Ins Fab, 0.4 μM AO, start value 1): approximately 0.97
